In patent publication US12202835B2, “Substituted aromatic ring-linked dioxinoquinazolines and dioxinoquinolines as kinase inhibitors” (BEIJING SCITECH-MQ PHARMACEUTICALS LIMITED, priority 2018, dated 2025):

Legend:
[1] = molecular target: TRKA kinase (Homo sapiens (Human), UniProt P04629); test: Assay of small molecular compounds for inhibiting the activity of TRKA kinase (LANCE TR-FRET); type: biochemical
Summary of the method: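 LANCE TR-FRET with ULight-TK peptide; compounds pre-incubated 5 min with TRKA (2× solution 2 nM), then substrate/ATP added (4× mix: 400 nM peptide, 40 μM ATP). Reaction 60 min at room temperature in dark, 1% DMSO final; stopped, detection developed 60 min, signal read.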

[2] = tested on: Ba/F3-AXL cells; test: Assay for inhibiting the proliferation of Ba/F3-AXL cells (CCK-8); type: cell-based; conditions: 72 hours of incubation, medium with 100 ng/mL hGas6, CCK-8
Protocol: The values were then imported into Graphpad Prism 5 software for curve fitting, and IC50 was calculated.

[3] = tested on: Ba/F3 LMNA-NTRK1 cells; test: Assay for inhibiting the proliferation of Ba/F3 LMNA-NTRK1 cells (CCK-8); type: cell-based; conditions: Mus musculus, BaF3
Summary of the method: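 Cells were seeded and cultured overnight, then treated with graded compound concentrations (final DMSO 0.25%) for 72 h. CCK-8 was added for 1–2 h at 37 °C and OD450 read. Survival was normalised to untreated and cell-free blank wells, and IC50 was fitted.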

Sequence of TRKA kinase (P04629 33-796): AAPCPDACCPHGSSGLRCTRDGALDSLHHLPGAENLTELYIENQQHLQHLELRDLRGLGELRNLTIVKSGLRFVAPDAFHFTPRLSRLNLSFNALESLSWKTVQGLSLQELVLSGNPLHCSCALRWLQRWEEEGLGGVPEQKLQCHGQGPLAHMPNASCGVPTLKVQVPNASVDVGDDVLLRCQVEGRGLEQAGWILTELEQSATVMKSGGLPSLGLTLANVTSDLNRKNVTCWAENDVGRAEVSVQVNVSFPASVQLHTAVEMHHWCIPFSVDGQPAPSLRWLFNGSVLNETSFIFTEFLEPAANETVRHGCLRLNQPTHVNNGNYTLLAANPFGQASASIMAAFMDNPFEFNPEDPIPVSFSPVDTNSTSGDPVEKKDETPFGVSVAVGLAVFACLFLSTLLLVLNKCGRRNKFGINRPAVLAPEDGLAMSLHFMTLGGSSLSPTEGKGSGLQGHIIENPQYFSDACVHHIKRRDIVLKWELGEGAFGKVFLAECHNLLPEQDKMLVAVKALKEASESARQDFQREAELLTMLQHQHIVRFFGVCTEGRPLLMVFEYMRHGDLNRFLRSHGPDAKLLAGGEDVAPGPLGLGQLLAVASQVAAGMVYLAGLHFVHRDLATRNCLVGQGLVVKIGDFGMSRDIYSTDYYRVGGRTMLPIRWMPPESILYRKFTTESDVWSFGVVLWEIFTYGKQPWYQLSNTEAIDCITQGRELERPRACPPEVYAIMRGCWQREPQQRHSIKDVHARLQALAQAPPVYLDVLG

Compound	IC50 [1] [nM]	IC50 [2] [nM]	IC50 [3] [nM]
CCOc1ccn(-c2ccc(F)cc2)c(=O)c1C(=O)Nc1ccc(Oc2ccnc3cc(OCC(C)C)c4c(c23)OCCO4)c(F)c1 [Example 58, N-(4-((5-(isobutyloxy)-2,3-dihydro-[1,4]dioxino[2,3-f]quinolin-10-yl)oxy)-3-fluorophenyl)-4-ethoxy-1-(4-fluorophenyl)-2-oxo-1,2-dihydropyridine-3-carboxamide]	50 to 500	< 50	–
CC(=O)N1CCN(CCCOc2cc3nccc(Oc4ccc(NC(=O)c5cn(C(C)C)c(=O)n(-c6ccc(F)cc6)c5=O)cc4F)c3c3c2OCCO3)CC1 [Example 75, N-(3-fluoro-4-((5-(3-(4-acetylpiperazin-1-yl)propoxy)-2,3-dihydro-[1,4]dioxino[2,3-f]quinolin-10-yl)oxy)phenyl)-3-(4-fluorophenyl)-1-isopropyl-2,4-dioxo-1,2,3,4-tetrahydropyrimidine-5-carboxamide]	< 50	–	< 50
CC(C)n1cc(C(=O)Nc2ccc(Oc3ccnc4cc(OCCCN5CCC(C)(C)CC5)c5c(c34)OCCO5)c(F)c2)c(=O)n(-c2ccc(F)cc2)c1=O [Example 92, N-(3-fluoro-4-((5-(3-(4,4-dimethylpiperidin-1-yl)propoxy)-2,3-dihydro-[1,4]dioxino[2,3-f]quinolin-10-yl)oxy)phenyl)-3-(4-fluorophenyl)-1-isopropyl-2,4-dioxo-1,2,3,4-tetrahydropyrimidine-5-carboxamide]	< 50	< 50	50 to 200
CCOc1ccn(-c2ccc(F)cc2)c(=O)c1C(=O)Nc1ccc(Oc2ccnc3cc(OCC4CC4)c4c(c23)OCCO4)c(F)c1 [Example 59, N-(4-((5-(cyclopropylmethoxy)-2,3-dihydro-[1,4]dioxino[2,3-f]quinolin-10-yl)oxy)-3-fluorophenyl)-4-ethoxy-1-(4-fluorophenyl)-2-oxo-1,2-dihydropyridine-3-carboxamide]	50 to 500	< 50	–
CC(C)Oc1cc2nccc(Oc3ccc(NC(=O)c4cn(C)c(=O)n(-c5ccc(F)cc5)c4=O)cc3F)c2c2c1OCCO2 [Example 88, N-(3-fluoro-4-((5-isopropoxy-2,3-dihydro-[1,4]dioxino[2,3-f]quinolin-10-yl)oxy)phenyl)-3-(4-fluorophenyl)-1-methyl-2,4-dioxo-1,2,3,4-tetrahydropyrimidine-5-carboxamide]	50 to 500	< 50	–

The next lines start with the values.

IC50 [1] [nM]	IC50 [2] [nM]	IC50 [3] [nM]	Compound
50 to 500	< 50	< 50	COCCOc1cc2nccc(Oc3ccc(NC(=O)c4cn(C(C)C)c(=O)n(-c5ccc(F)cc5)c4=O)cc3F)c2c2c1OCCO2 [Example 43, N-(3-fluoro-4-((5-(2-methoxyethoxy)-2,3-dihydro-[1,4]dioxino[2,3-f]quinolin-10-yl)oxy)phenyl)-3-(4-fluorophenyl)-1-isopropyl-2,4-dioxo-1,2,3,4-tetrahydropyrimidine-5-carboxamide]
< 50	< 50	< 50	CC(C)n1cc(C(=O)Nc2ccc(Oc3ccnc4cc(OCCCN5CCCC5)c5c(c34)OCCO5)c(F)c2)c(=O)n(-c2ccc(F)cc2)c1=O [Example 77, N-(3-fluoro-4-((5-(3-(pyrrolidin-1-yl)propoxy)-2,3-dihydro-[1,4]dioxino[2,3-f]quinolin-10-yl)oxy)phenyl)-3-(4-fluorophenyl)-1-isopropyl-2,4-dioxo-1,2,3,4-tetrahydropyrimidine-5-carboxamide]
< 50	–	< 50	CC(C)n1cc(C(=O)Nc2ccc(Oc3ccnc4cc(OCCCO)c5c(c34)OCCO5)c(F)c2)c(=O)n(-c2ccc(F)cc2)c1=O [Example 79, N-(3-fluoro-4-((5-(3-hydroxypropoxy)-2,3-dihydro-[1,4]dioxino[2,3-f]quinolin-10-yl)oxy)phenyl)-3-(4-fluorophenyl)-1-isopropyl-2,4-dioxo-1,2,3,4-tetrahydropyrimidine-5-carboxamide]
